Here are results for 22 molecules from patent US20140309192A1, “MODULATORS OF THE G PROTEIN-COUPLED MAS RECEPTOR AND THE TREATMENT OF DISORDERS RELATED THERETO” (ARENA PHARMACEUTICALS, INC., priority 2011, published 2014).

One assay addresses T1, human Mas receptor (Homo sapiens, UniProt P04201).
T1 construct: expressed in transfected cells; host or cells: HEK293 (ATCC CRL-1573)
T1 sequence (P04201 1-325): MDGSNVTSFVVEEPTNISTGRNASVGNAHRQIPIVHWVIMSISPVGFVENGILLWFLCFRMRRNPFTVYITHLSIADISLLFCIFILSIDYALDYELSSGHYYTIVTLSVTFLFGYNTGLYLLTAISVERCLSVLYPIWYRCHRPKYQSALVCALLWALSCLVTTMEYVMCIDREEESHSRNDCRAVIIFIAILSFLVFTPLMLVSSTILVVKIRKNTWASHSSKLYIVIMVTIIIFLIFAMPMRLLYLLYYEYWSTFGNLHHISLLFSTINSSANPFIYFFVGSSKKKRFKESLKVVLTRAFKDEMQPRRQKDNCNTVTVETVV
The assay is described as follows: HTRF IP1 assay, HEK293 cells expressing human Mas receptor. The assay is classed as cell-based. The note with it: HTRF IP1 assay, human Mas receptor (Table B.2); read-out: IC50. The source says: (§1) Human and rat Mas receptors were either transiently or stably expressed in HEK293 cells. For transient transfections, human or rat Mas in pHM6 vector were transfected into HEK293 cells using Lipofectamine® (Invitrogen #18324-012). HEK293 cells transfected with empty pHM6 vector were used as a control. For generation of stable cell lines, cDNA expression plasmids encoding human or rat Mas genes and the neo^r gene were transfected into HEK293 cells (ATCC# CRL-1573) using Lipofectamine® (Invitrogen) according to the manufacturer's instructions. Stable receptor expressing pools were then generated over 3 weeks by standard techniques in the presence of 500 μg/mL Geneticin® (Gibco). Individual receptor stable pools were dilution cloned using standard techniques and clones were comparatively evaluated in inositol phosphate accumulation assays. Preferred clones were banked and cultured as needed. HEK293 cells were used as controls. The 384 well IP-One HTRF® Assay (Cisbio #62P1APEJ) was performed as described by the manufacturer's protocol. Cells were plated in at 100,000 cells per well in 15 μL DMEM (Gibco #11960) and incubated in a CO2 incubator at 37° C. for 2 h. Five μL of compounds diluted in 2× stimulation buffer plus 0.4% BSA (Sigma (#A3059) were added to each well and serial diluted IP1 standards (Cisbio #62IP1CDA) were also added to corresponding wells at this step. After the cells were incubated for 4 h in a CO2 incubator at 37° C., d2-labeled IP1 and cryptate-labeled anti-IP1 monoclonal antibody diluted in lysis buffer were added sequentially in 10 μL per well and the assay plates were kept in the dark at room temperature overnight. Ratiometric measurements of fluorescence emission at 665 nm and 620 nm were obtained using a Pherastar fluorometer (BMG Labtech). IP1 levels in each well were calculated according to the standard curves on each plate. IC50 values were obtained by fitting data to a nonlinear curve-fitting program (GraphPad Software, Inc., La Jolla Calif.).

The next assay addresses T2, rat Mas receptor (Rattus norvegicus, UniProt P12526).
T2 construct: expressed in transfected cells; host or cells: HEK293 (ATCC CRL-1573)
T2 sequence (P12526 1-324): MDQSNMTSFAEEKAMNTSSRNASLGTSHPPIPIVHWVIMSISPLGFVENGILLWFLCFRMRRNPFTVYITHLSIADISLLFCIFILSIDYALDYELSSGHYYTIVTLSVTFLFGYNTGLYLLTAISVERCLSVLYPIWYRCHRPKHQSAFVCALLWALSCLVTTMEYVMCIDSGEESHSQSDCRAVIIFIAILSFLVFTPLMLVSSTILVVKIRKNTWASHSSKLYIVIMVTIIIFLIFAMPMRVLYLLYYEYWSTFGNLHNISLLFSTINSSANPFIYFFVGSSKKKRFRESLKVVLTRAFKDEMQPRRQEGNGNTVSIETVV
Nature of the assay: HTRF IP1 assay, HEK293 cells expressing rat Mas receptor. In kind it is cell-based. The note with it: HTRF IP1 assay, rat Mas receptor (Table B.1); read-out: IC50.
Source text: as §1

For the molecule `O=C(Nc1ccc(Cl)cc1N1CCN(CCC(F)(F)F)CC1)c1ccc2c(c1)CNCC2` [Compound 13, N-(4-Chloro-2-(4-(3,3,3-trifluoropropyl)piperazin-1-yl)phenyl)-1,2,3,4-tetrahydroisoquinoline-7-carboxamide], the IC50 at human Mas receptor stood at 88.2 nM. `O=C(Nc1ccc(Cl)cc1N1CCN(CCC(F)(F)F)CC1)c1ccc2c(c1)CN(CCCO)CC2` [Compound 16, N-(4-Chloro-2-(4-(3,3,3-trifluoropropyl)piperazin-1-yl)phenyl)-2-(3-hydroxypropyl)-1,2,3,4-tetrahydroisoquinoline-7-carboxamide]: the 50% inhibitory concentration (IC50) at rat Mas receptor turned out to be 316 nM. As for `CC(C)(C)CCN1CCc2ccc(C(=O)Nc3ccc(Cl)cc3N3CCN(CCC(F)(F)F)CC3)cc2C1` [Compound 17, N-(4-Chloro-2-(4-(3,3,3-trifluoropropyl)piperazin-1-yl)phenyl)-2-(3,3-dimethylbutyl)-1,2,3,4-tetrahydroisoquinoline-7-carboxamide], on human Mas receptor, the IC50 stood at 386 nM. Still for that read-out and setting: with `NC(=O)CCN1CCc2ccc(C(=O)Nc3ccc(Cl)cc3N3CCN(CCC(F)(F)F)CC3)cc2C1` [Compound 20, 2-(3-Amino-3-oxopropyl)-N-(4-chloro-2-(4-(3,3,3-trifluoropropyl)piperazin-1-yl)phenyl)-1,2,3,4-tetrahydroisoquinoline-7-carboxamide] the figure was 610 nM; with `NCc1ccc(C(=O)Nc2ccc(Cl)cc2N2CCN(CCC(F)(F)F)CC2)c(F)c1` [Compound 26, 4-(Aminomethyl)-N-(4-chloro-2-(4-(3,3,3-trifluoropropyl)piperazin-1-yl)phenyl)-2-fluorobenzamide], 87.3 nM.

Regarding `CCOC(=O)CN1Cc2ccc(C(=O)Nc3ccc(Cl)cc3N3CCN(CCC(F)(F)F)CC3)cc2C1` [Compound 27, Ethyl 2-(5-(4-chloro-2-(4-(3,3,3-trifluoropropyl)piperazin-1-yl)phenylcarbamoyl)isoindolin-2-yl)acetate], on rat Mas receptor, the IC50 worked out at 650 nM. Regarding `O=C(Nc1ccc(Cl)cc1N1CCN(CCC(F)(F)F)CC1)c1ccc(N2CCCC2)cc1` [Compound 41, N-(4-Chloro-2-(4-(3,3,3-trifluoropropyl)piperazin-1-yl)phenyl)-4-(pyrrolidin-1-yl)benzamide], the half-inhibitory concentration (IC50) at rat Mas receptor came out at 582 nM.

For `NC(=O)[C@@H]1CCCN1Cc1ccc(C(=O)Nc2ccc(Cl)cc2N2CCN(CCC(F)(F)F)CC2)c(F)c1` [Compound 56, (S)-1-(4-(4-Chloro-2-(4-(3,3,3-trifluoropropyl)piperazin-1-yl)phenylcarbamoyl)-3-fluorobenzyl)pyrrolidine-2-carboxamide], the IC50 at human Mas receptor is 56.1 nM. Still for that read-out and setting: with `NC(=O)[C@H](CO)NCc1ccc(C(=O)Nc2ccc(Cl)cc2N2CCN(CCC(F)(F)F)CC2)c(F)c1` [Compound 76, (S)-4-((1-Amino-3-hydroxy-1-oxopropan-2-ylamino)methyl)-N-(4-chloro-2-(4-(3,3,3-trifluoropropyl)piperazin-1-yl)phenyl)-2-fluorobenzamide] the figure was 68.2 nM.

Regarding `O=C1CN(Cc2ccc(C(=O)Nc3ccc(Cl)cc3N3CCN(CCC(F)(F)F)CC3)c(F)c2F)CCN1` [Compound 167, N-(4-Chloro-2-(4-(3,3,3-trifluoropropyl)piperazin-1-yl)phenyl)-2,3-difluoro-4-((3-oxopiperazin-1-yl)methyl)benzamide], the IC50 at human Mas receptor was determined as 35.3 nM. The same measure, in the same setting: with `O=C(Nc1cc(Cl)c(Cl)cc1N1CCN(CCC(F)(F)F)CC1)c1ccc(CN2CCS(=O)(=O)CC2)c(F)c1F` [Compound 186, N-(4,5-Dichloro-2-(4-(3,3,3-trifluoropropyl)piperazin-1-yl)phenyl)-2,3-difluoro-4-((1,1-dioxo-thiomorpholin-4-yl)methyl)benzamide] the figure was 49.1 nM; with `O=C(Nc1ccc(Cl)cc1N1CCN(CCC(F)(F)F)CC1)c1ccc(CNCc2nn[nH]n2)c(F)c1F` [Compound 200, 4-(((2H-Tetrazol-5-yl)methylamino)methyl)-N-(4-chloro-2-(4-(3,3,3-trifluoropropyl)piperazin-1-yl)phenyl)-2,3-difluorobenzamide], 41.7 nM.

As for `O=C(O)CNCc1ccc(C(=O)Nc2ccc(Cl)cc2N2CCN(CCC(F)(F)F)CC2)c(F)c1F` [Compound 202, 2-(4-(4-Chloro-2-(4-(3,3,3-trifluoropropyl)piperazin-1-yl)phenylcarbamoyl)-2,3-difluorobenzylamino)acetic acid], on human Mas receptor, the half-inhibitory concentration (IC50) is 92.1 nM. The same measure, in the same setting: with `O=C(O)CC1CNCCN1Cc1ccc(C(=O)Nc2ccc(Cl)cc2N2CCN(CCC(F)(F)F)CC2)c(F)c1F` (stereo not shown) [Compound 226, 2-(1-(4-(4-Chloro-2-(4-(3,3,3-trifluoropropyl)piperazin-1-yl)phenylcarbamoyl)-2,3-difluorobenzyl)piperazin-2-yl)acetic acid] the figure was 93.9 nM. As for `N#CCCNCc1ccc(C(=O)Nc2ccc(Cl)cc2N2CCN(CCC(F)(F)F)CC2)c(F)c1F` [Compound 235, N-(4-Chloro-2-(4-(3,3,3-trifluoropropyl)piperazin-1-yl)phenyl)-4-((2-cyanoethylamino)methyl)-2,3-difluorobenzamide], on human Mas receptor, the IC50 stood at 39.1 nM. Same read-out and setting: with `NC(=O)[C@@H](COP(=O)(O)O)NCc1ccc(C(=O)Nc2ccc(Cl)cc2N2CCN(CCC(F)(F)F)CC2)c(F)c1F` [Compound 250, (R)-3-Amino-2-(4-(4-chloro-2-(4-(3,3,3-trifluoropropyl)piperazin-1-yl)phenylcarbamoyl)-2,3-difluorobenzylamino)-3-oxopropyl dihydrogenphosphate] the figure was 5.7 nM; with `O=C(Nc1ccc(Cl)cc1N1CCN(CCC(F)(F)F)CC1)c1ccc2c(c1)CN(C(=O)c1cccnc1)CC2` [Compound 259, N-(4-Chloro-2-(4-(3,3,3-trifluoropropyl)piperazin-1-yl)phenyl)-2-nicotinoyl-1,2,3,4-tetrahydroisoquinoline-7-carboxamide], 108 nM. Still for that read-out and setting: as for `NC1(C(=O)NCc2ccc(C(=O)Nc3ccc(Cl)cc3N3CCN(CCC(F)(F)F)CC3)c(F)c2F)CCSCC1` [Compound 284, 4-Amino-N-(4-(4-chloro-2-(4-(3,3,3-trifluoropropyl)piperazin-1-yl)phenylcarbamoyl)-2,3-difluorobenzyl)tetrahydro-2H-thiopyran-4-carboxamide], the figure is 57.2 nM; as for `O=C(O)CCC(=O)NCc1ccc(C(=O)Nc2ccc(Cl)cc2N2CCN(CCC(F)(F)F)CC2)c(F)c1F` [Compound 293, 4-(4-(4-Chloro-2-(4-(3,3,3-trifluoropropyl)piperazin-1-yl)phenylcarbamoyl)-2,3-difluorobenzylamino)-4-oxobutanoic acid], 103 nM.

For `O=C(Nc1ccc(Cl)cc1N1CCN(CCC(F)(F)F)CC1)c1ccc(CNC(=O)[C@H]2CC[C@@H](O)CC2)c(F)c1F` [Compound 330, N-(4-Chloro-2-(4-(3,3,3-trifluoropropyl)piperazin-1-yl)phenyl)-2,3-difluoro-4-(((1s,4s)-4-hydroxycyclohexanecarboxamido)methyl)benzamide], on human Mas receptor, the IC50 came out at 11.7 nM. Same read-out and setting: with `O=C(Nc1ccc(Cl)cc1N1CCN(CCC(F)(F)F)CC1)c1ccc(CNC(=O)[C@H]2CC[C@@H](OP(=O)(O)O)CC2)c(F)c1F` [Compound 392, (1s,4s)-4-(4-(4-Chloro-2-(4-(3,3,3-trifluoropropyl)piperazin-1-yl)phenylcarbamoyl)-2,3-difluorobenzylcarbamoyl)cyclohexyl dihydrogen phosphate] the figure was 6.13 nM.

Consider `O=C(Nc1ccc(Cl)cc1N1CCN(CCC(F)(F)F)CC1)c1ccc(CN2C(=O)CNC2=O)c(F)c1F` [Compound 428, N-(4-Chloro-2-(4-(3,3,3-trifluoropropyl)piperazin-1-yl)phenyl)-4-((2,5-dioxoimidazolidin-1-yl)methyl)-2,3-difluorobenzamide], for which the IC50 at human Mas receptor was 73.3 nM.
